Our source for the IC50 values is patent US8258098B2, “Antitumoral treatments” (Pharma Mar, S.A., priority 2006, dated 2012).

Test in all cases: MTS cytotoxicity assay, 72 hours, single agents and combinations with Aplidine
What all share (type): cell-based
(In general: Formazan colour is commonly taken as a measure of viable cells.)

For one test, the system named is A549 cells. The settings on record: A549, 72 hours drug exposure, read-out: IC50 (Molar). The procedure:
(§1) Day before plating cells all cultures were fed with fresh, complete growth media. On the harvest (plating) day cells were counted by Trypan Blue exclusion staining method (basic cell culture). Cells were harvested and seeded in 96 well microtiter plates at 10,000 cells per well in 190 μL of media and incubated for 24 hours to allow the cells to attach before drug addition. Cells were treated with the drugs and the cytotoxic effect was measured by the MTS Assay (Tetrazolium), which is a colorimetric method for determining the number of viable cells. After the 72 hours of incubation with drug, 25 μL of MTS+PMS solution was added to each microtiter well and incubated for 4 hours at 37° C. Plates were then removed from incubator and placed on plate shaker for 5 minutes (covered with aluminium foil for protection from light). Optical densities were read at 490 nm on spectrophotometer plate reader.
(§2) The microtiter plates were incubated for 72 hrs, at 5% CO2 and 37° C. The cytotoxic effect was measured by MTS Assay. Optical densities read at 490 nm. Normalized data was plotted and interpreted as described. Data was analysed as: • 1. Prism (Graphpad) software program was used to normalized the data to control values (100%=cell growth in the absence of agent (drug); 0%=blank control). • 2. Data normalized were plotted as scatter plots.
(§3) Conversely, antagonism was concluded when inhibition was lower than both maxima. […] Statistical significance was assessed by performing a student's t-test on the inhibition at each dose ratio versus the inhibition at the maximum for each drug.
(§4) As a visual aid, response values were plotted on a scatter plot with dose ratios given on the x-axis and % response values on the y-axis. […] In cases where response values at the two endpoints were approximately equivalent, points lying above or below this predicted line of additivity could be interpreted as representing antagonistic or synergistic drug interaction, respectively.

The test system of the next test is HL60 cells. To be noted: HL60, 72 hours drug exposure, read-out: IC50 (Molar). The procedure:
as §1, §2, §3, §4

Another test relates to HT29 cells. The settings on record: HT29, 72 hours drug exposure, read-out: IC50 (Molar). The protocol:
as §1, §2, §3, §4

The test system of another test is MOLT3 cells. To be noted: MOLT3, 72 hours drug exposure, read-out: IC50 (Molar). The procedure: as §1, §2, §3, §4
The next test relates to MX1 cells. The settings on record: MX1, 72 hours drug exposure, read-out: IC50 (Molar). The protocol:
as §1, §2, §3, §4

The test system of the next test is PC3 cells. The settings on record: PC3, 72 hours drug exposure, read-out: IC50 (Molar). The protocol: as §1, §2, §3, §4
The test system of the next test is SKBR3 cells. To be noted: SKBR3, 72 hours drug exposure, read-out: IC50 (Molar). The procedure:
as §1, §2, §3, §4

A value given as a limit tells only on which side of the number the result lay.

In the case of `N.N.O=C([O-])C1(C(=O)[O-])CCC1.[Pt+2]` [carboplatin], the IC50 (as a rule, the concentration that inhibits the measured activity by half) in the test with A549 cells was 310 µM; in the test with HL60 cells it was 56 µM; in the test with HT29 cells, 260 µM; with MOLT3 cells it was 4 µM; in the test on MX1 cells, greater than 100 µM; in the test with PC3 cells, greater than 100 µM. Moreover, the IC50 with SKBR3 cells amounted to 52 µM.
